Columns and labels:
[1] = tested on: Neonatal foreskin fibroblasts (NFF); assay: Normal cell toxicity, MTT proliferation assay, NFF; type: cell-based, human
Experimental: Neonatal foreskin fibroblasts (NFF) were a gift from Dr. Peter Parsons (Queensland Institute of Medical Research). RK-13 (rabbit kidney) cells were obtained from Miller Whalley (Macquarie University). Both cell types were cultured in RPMI supplemented with 10% FCS (CSL, Australia), penicillin (100 U/ml), streptomycin ([…]), L-glutamine (2 mM) and sodium bicarbonate (1.2 g/L), and cultured at 37° C. in a humidified atmosphere of 5% CO2.
(§1) IC50 values were determined for each cell line. Cells were seeded in 96-well plates at an appropriate cell density as determined from growth kinetics analysis. NFFs were cultured for 5 days and RK-13s for 24 hrs in the absence and presence of the test compounds. Cell proliferation was assessed after the addition of 20 μl of 3-4,5 dimethylthiazol-2,5-diphenyl tetrazolium bromide (MTT, 2.5 mg/ml in PBS, Sigma) for 3-4 hrs at 37° C. according to manufacturer's instructions. IC50 values were calculated from semi-log plots of % of control proliferation on the y-axis against log dose on the x-axis.
Duplicate cytotoxicity assays against NFF cells were conducted with dehydroequol (DHE), 4,9-dihydroxy-14,15-dimethoxy-12a-(3′,4′-dimethoxyphenyl)-3,10-dimethyl-2,11-dioxa-(1H,12H)-6b,6c,12a,16b-tetrahydronaphtho[1,2-g]chrysene (2) from Example 6.1 and cisplatin.

[2] = Oral pharmacokinetics in mice; type: in vivo, female BALB/c mice; conditions: 50 mg/kg
Experimental: 4,9-Dihydroxy-14,15-dimethoxy-12a-(3′,4′-dimethoxyphenyl)-3,10-dimethyl-2,11-dioxa-(1H,12H)-6b,6c,12a,16b-tetrahydronaphtho[1,2-g]chrysene (2) from Example 6.1 was prepared as homogenous suspensions in 1% CMC (m:v, water). The Cpd. 2 formulation was delivered orally by gavage to female BALB/c mice at a dosage of 50 mg/kg. Three animals were allocated to each time point (15 min, 30 min, 1 hr, 4 hr and 24 hr). At each respective time point, animals were euthanased by cervical dislocation and blood collected. Free Cpd.

[3] = tested on: UV irradiation-induced skin oedema; assay: Murine model of UV irradiation-induced skin oedema; type: in vivo, female Skh:hr-1 albino mice; conditions: for Change in skin thickness (mean ± SD, ×0.01 mm): dorsal skin fold, topical 0.2 ml of 20 μM at 30 min, 2 h, 4 h
Text: Groups of 4-5 female Skh:hr-1 albino mice were irradiated with 1×3 MEdD (minimal edematous dose) of solar simulated UV radiation (SSUV). Solar-simulated ultraviolet radiation (SSUV) was provided by a planar bank of 6 UVA tube (Hitachi 40W F40T 10/BL, black light) and one UVB tube (Philips TL 40W/12RS) with radiation filtered through a sheet of 0.125 mm cellulose acetate (Eastman Chemical Products, Kingport, Tenn., USA) to give 2.96×10-4W/cm2 UVA and 1.59×10-5W/cm2 UVB. The distance of the UV lamp from the irradiance table surface was approximately 20 cm and temperature was controlled with an electric fan. During irradiation, the cages were rotated below the lights to reduce the variation in radiation intensity in different positions.
Either test compound (0.2 ml of a 20 μM solution) or vehicle (propylene glycol/ethanol/water 1:2:1) was applied to the irradiated dorsal skin at 30 min, 2 h and 4 h post-irradiation. Dorsal skin fold measurements were made with a spring micrometer prior to and at 24 hr and 48 h post-UV exposure. The difference in skin thickness pre- and post-exposure to UVR was calculated for each mouse, and the differences examined between test compound and vehicle control were analysed using an unpaired two-tailed t test.

HCT-15 (Colorectal) = assay: In vitro cytotoxicity, MTT proliferation assay, HCT-15; type: cell-based, human; conditions: Homo sapiens; Colorectal HCT-15
Experimental: The human pancreatic cancer cell line, HPAC (CRL-2119) was routinely cultured in 1:1 mixture DMEM (Sigma) plus Ham's F12 (Sigma) medium containing HEPES (15 mM), insulin (0.002 mg/ml), transferrin (0.005 mg/ml), hydrocortisone, (40 ng/ml), epidermal growth factor (10 ng/ml). The ovarian cancer cell line CP70 was obtained as a gift from Dr. Gil Mor (Yale University) and cultured in a 1:1 mixture DMEM plus Ham's F12 medium, and SKOV-3 was purchased from ATCC and cultured in McCoy's 5a medium. The breast cancer cell line MDA-MB-468 cultured in Leibovitz's L-15 medium.
All cultures were supplemented with 10% FCS(CSL, Australia), penicillin (100 U/ml), streptomycin ([…]), L-glutamine (2 mM) and sodium bicarbonate (1.2 g/L), and cultured at 37° C. in a humidified atmosphere of 5% CO2. All remaining cell lines were purchased from ATCC (Maryland, USA) except where noted.
as §1

[4] = tested on: HCT-15 (Colorectal) cells; assay: Chemosensitisation, combination with antineoplastic agent, HCT-15; type: cell-based, human
Experimental: The utility of the dimeric compounds of the invention to act as a chemosensitiser when used in combination with an array of standard chemotherapeutic agents was assessed. Dimeric Cpd. 2 was applied to various colorectal and pancreatic cancer cell lines to investigate its synergy with standard chemotherapeutic agents including cisplatin, gemcitabine, paclitaxel, doxorubicin, camptothecin and topotecan.
The experiment as outlined in SOP-BD011 (Versions A and B) was used to screen three antineoplastic agents against a given cell line in any ‘one’ experiment (see for example Kanzawa et al., (1997)). The inherent design of the experiment allowed for three sequences of Cpd. 2 and an antineoplastic agent. • 1) Direct Sequence—Cells are treated with both Cpd. 2 and a single antineoplastic agent (combined) for 5 days. • 2) Cpd. 2 First (Forward) Sequence—Cells are treated for 24 hours with Cpd. 2 before replacing with a 24 hour antineoplastic agent treatment; drugs are then washed out and processed on Day 5. • 3) Reverse Sequence—The reverse order to experiment No. 2 above. i.e. a cytotoxin first sequence Results and Conclusions
All data was evaluated using the formulae of theoretic additivity incorporated into a three dimensional model, as described by Kanzawa et al. (1997). This allows for simple data interpretation as values in excess of 10% are defined as ‘synergistic’ (depicted in grey) whilst those below −10% are defined as ‘antagonistic’ (depicted in black).

COc1ccc(C23COc4c(ccc(O)c4C)C2C2c4ccc(O)c(C)c4OCC2c2cc(OC)c(OC)cc23)cc1OC (stereo not drawn) [Cpd. 2, 4,9-Dihydroxy-14,15-dimethoxy-12a-(3′,4′-dimethoxyphenyl)-3,10-dimethyl-2,11-dioxa-(1H,12H)-6b,6c,12a,16b-tetrahydronaphtho[1,2-g]chrysene]
IC50 ([1]; Homo sapiens, 120 h, NFF fibroblast, cultured 5 days, MTT): 23.6 ± 6.6 µM | toxicity to normal cells relative to cisplatin and dehydroequol ([1]; normal cells (NFF, rabbit kidney)): less toxic to normal cells than cisplatin, but more toxic than dehydroequol | concentration at 15 min ([2]; female, BALB/c, mouse, blood, oral gavage, Time 0.25 (15 min), read-out: Free concentration in blood): 1.33 µM | concentration at 30 min ([2]; female, BALB/c, mouse, blood, oral gavage, Time 0.5 (30 min), read-out: Free concentration in blood): 4.93 µM | concentration at 1 h ([2]; female, BALB/c, mouse, blood, oral gavage, Time 1 (1 hr), read-out: Free concentration in blood): 6.76 µM | concentration at 4 h ([2]; female, BALB/c, mouse, blood, oral gavage, Time 4 (4 hr), read-out: Free concentration in blood): 6.31 µM | concentration at 24 h ([2]; female, BALB/c, mouse, blood, oral gavage, Time 24 (24 hr), read-out: Free concentration in blood): 1.15 µM | half-life compared to dehydroequol ([2]; oral): superior half-life at times up to 4 hours compared to dehydroequol | rate of conjugation compared to dehydroequol ([2]; oral): slow rate of conjugation compared to dehydroequol | inhibition of skin oedema ([3]; 24 hrs post-irradiation): significantly inhibited | inhibition of skin oedema ([3]; 48 hrs post-irradiation): significantly inhibited | Change in skin thickness (mean ± SD, ×0.01 mm) ([3]; 24 hrs post-irradiation, vehicle 78 ± 23): 36 ± 22 ×0.01 mm | Change in skin thickness (mean ± SD, ×0.01 mm) ([3]; 48 hrs post-irradiation, vehicle 147 ± 37): 105 ± 16 ×0.01 mm | IC50 (HCT-15 (Colorectal)): 54.7 ± 28 µM | synergy with Doxorubicin ([4]; combination (A)): strong synergistic cytotoxicity | synergy with Paclitaxel ([4]; combination treated group (A)): no synergy | synergy with Paclitaxel ([4]; forward (B) and reverse (C) 24 hour sequences, Cpd. 2 1 μM and 2 μM): strong synergy | synergy with Doxorubicin ([4]; forward (B) or reverse (C) sequences): No synergy

Reference: patent publication US7700644B2, “Isoflavonoid dimers” (Novogen Research Pty Ltd, priority 2005, dated 2010)
